The target of one test is T1, Matrilysin (Homo sapiens, UniProt P09237).
T1 sequence (P09237 whole entry): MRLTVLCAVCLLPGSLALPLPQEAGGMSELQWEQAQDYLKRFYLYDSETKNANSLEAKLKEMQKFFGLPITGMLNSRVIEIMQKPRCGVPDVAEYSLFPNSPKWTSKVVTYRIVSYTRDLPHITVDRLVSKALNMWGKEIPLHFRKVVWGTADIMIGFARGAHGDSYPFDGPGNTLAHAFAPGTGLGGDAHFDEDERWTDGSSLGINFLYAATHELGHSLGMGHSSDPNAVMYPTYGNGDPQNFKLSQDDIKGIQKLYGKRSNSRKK
The experiment in a line: Inhibition of recombinant human MMP7 using MOCAc-Pro-Leu-Gly-Leu-A2pr-(Dnp)-Ala-Arg-NH2 as substrate preincubated with compound for 15 mins followed by substrate addition and measured after 2 hrs by fluorescence based analysis.

The target in test [1] is Matrix metalloproteinase-14 (Homo sapiens, UniProt P50281). The experiment in a line: Inhibition of recombinant human MMP14 using MOCAc-Lys-Pro-Leu-Gly-Leu-A2pr(Dnp)-Ala-Arg-NH2 as substrate preincubated with compound for 15 mins followed by substrate addition and measured after 1 hrs by fluorescence based analysis.

Usually IC50 stands for the concentration that gives 50% inhibition.

SMILES strings stand for the structures. Numbered stars: 1 amine (or outer) side, 2 acyl side, 3 side chain; on linkers, the order of the positions; unused ones are H or OH. Square brackets hold non-standard residues; d marks the D form. Peptide text beside a SMILES is read from it. * marks the point of attachment. Benzenesulfonyl(4-Cl,3-CF3) = O=S(=O)(c1ccc(Cl)c(C(F)(F)F)c1)*; Phe(4-CF3) = N[C@@H](Cc1ccc(C(F)(F)F)cc1)C(=O)O; Ala(4-Pyridazinyl) = N[C@@H](Cc1ccnnc1)C(=O)O; Ala(thiazol-2-yl) = N[C@@H](Cc1nccs1)C(=O)O; Ala(4-thiazolyl) = N[C@@H](Cc1cscn1)C(=O)O; Phe(3-I) = N[C@@H](Cc1cccc(I)c1)C(=O)O; Phe(4-I) = N[C@@H](Cc1ccc(I)cc1)C(=O)O; γGlu = O=C(O)[C@H](CCC(=O)[*:2])N[*:1]; Phe(2-I) = N[C@@H](Cc1ccccc1I)C(=O)O; hPhe = N[C@@H](CCc1ccccc1)C(=O)O; 2Pal = N[C@@H](Cc1ccccn1)C(=O)O; 3Pal = N[C@@H](Cc1cccnc1)C(=O)O; Phg = N[C@H](C(=O)O)c1ccccc1; Tle = CC(C)(C)[C@H](N)C(=O)O; β3hP = O=C(O)C[C@@H]1CCCN1

Regarding `CC(C)(C)[C@H](NC(=O)[C@H](Cn1ccnn1)NC(=O)CNC(=O)CC[C@H](NS(=O)(=O)c1ccc(Cl)c(C(F)(F)F)c1)C(=O)O)C(=O)N1CCC[C@H]1CC(N)=O`, the figures for the IC50 (on Matrilysin; in test [1]) were 32 nM and 8.3 µM, respectively.
For `CC(C)(C)[C@H](NC(=O)[C@H](Cn1cc(C2CC2)nn1)NC(=O)CNC(=O)CC[C@H](NS(=O)(=O)c1ccc(Cl)c(C(F)(F)F)c1)C(=O)O)C(=O)N1CCC[C@H]1CC(N)=O` the same measures were 40 nM and 9.3 µM.
For `CC(C)c1cn(C[C@H](NC(=O)CNC(=O)CC[C@H](NS(=O)(=O)c2ccc(Cl)c(C(F)(F)F)c2)C(=O)O)C(=O)N[C@H](C(=O)N2CCC[C@H]2CC(N)=O)C(C)(C)C)nn1` the same measures were 100 nM and 16 µM.
Taken in the same sequence, the figures for `CC(C)Cn1cc(-c2ccc(C[C@H](NC(=O)CNC(=O)CC[C@H](NS(=O)(=O)c3ccc(Cl)c(C(F)(F)F)c3)C(=O)O)C(=O)N[C@H](C(=O)N3CCC[C@H]3CC(N)=O)C(C)(C)C)cc2)cn1` were 23 nM and 46 µM.
`CC(C)(C)[C@H](NC(=O)[C@H](Cc1cccnn1)NC(=O)CNC(=O)CC[C@H](NS(=O)(=O)c1ccc(Cl)c(C(F)(F)F)c1)C(=O)O)C(=O)N1CCC[C@H]1CC(N)=O`: the IC50 on Matrilysin stood at 6 nM; in test [1] it was 8.4 µM.
Turning to `CC(C)(C)[C@H](NC(=O)[C@H](Cc1ccccc1)NC(=O)CNC(=O)CC[C@H](NS(=O)(=O)c1ccc(Cl)c(C(F)(F)F)c1)C(=O)O)C(=O)N1CCC[C@H]1CC(N)=O` ({Benzenesulfonyl(4-Cl,3-CF3)-γGlu}-GF[Tle][β3hP]-NH2), the IC50 was 13 nM on Matrilysin and 3.2 µM in test [1].
In the case of `COc1ccc(C[C@H](NC(=O)CNC(=O)CC[C@H](NS(=O)(=O)c2ccc(Cl)c(C(F)(F)F)c2)C(=O)O)C(=O)N[C@H](C(=O)N2CCC[C@H]2CC(N)=O)C(C)(C)C)cc1` ({Benzenesulfonyl(4-Cl,3-CF3)-γGlu}-GY(Me)[Tle][β3hP]-NH2), the figures for the IC50 (on Matrilysin; in test [1]) were 14 nM and 2 µM, respectively.
As to `CC(C)(C)[C@H](NC(=O)[C@H](Cc1ccc(O)cc1)NC(=O)CNC(=O)CC[C@H](NS(=O)(=O)c1ccc(Cl)c(C(F)(F)F)c1)C(=O)O)C(=O)N1CCC[C@H]1CC(N)=O` ({Benzenesulfonyl(4-Cl,3-CF3)-γGlu}-GY[Tle][β3hP]-NH2), the IC50 on Matrilysin was found to be 9.6 nM; in test [1], 2.7 µM.
As to `CC(C)(C)[C@H](NC(=O)[C@H](Cc1ccccn1)NC(=O)CNC(=O)CC[C@H](NS(=O)(=O)c1ccc(Cl)c(C(F)(F)F)c1)C(=O)O)C(=O)N1CCC[C@H]1CC(N)=O` ({Benzenesulfonyl(4-Cl,3-CF3)-γGlu}-G[2Pal][Tle][β3hP]-NH2), the IC50 came to 1.9 nM on Matrilysin and 3.5 µM in test [1].
As for `CC(C)(C)[C@H](NC(=O)[C@H](Cc1cccnc1)NC(=O)CNC(=O)CC[C@H](NS(=O)(=O)c1ccc(Cl)c(C(F)(F)F)c1)C(=O)O)C(=O)N1CCC[C@H]1CC(N)=O` ({Benzenesulfonyl(4-Cl,3-CF3)-γGlu}-G[3Pal][Tle][β3hP]-NH2), the results for the IC50 (at Matrilysin; in test [1]) were 1.7 nM and 2.7 µM, respectively.
With `CC(C)(C)[C@H](NC(=O)[C@H](Cc1ccnnc1)NC(=O)CNC(=O)CC[C@H](NS(=O)(=O)c1ccc(Cl)c(C(F)(F)F)c1)C(=O)O)C(=O)N1CCC[C@H]1CC(N)=O` ({Benzenesulfonyl(4-Cl,3-CF3)-γGlu}-G[Ala(4-Pyridazinyl)][Tle][β3hP]-NH2), the half-inhibitory concentration (IC50) on Matrilysin worked out at 2.8 nM; in test [1], 1.4 µM.
Take `CC(C)(C)[C@H](NC(=O)[C@H](Cc1cscn1)NC(=O)CNC(=O)CC[C@H](NS(=O)(=O)c1ccc(Cl)c(C(F)(F)F)c1)C(=O)O)C(=O)N1CCC[C@H]1CC(N)=O` ({Benzenesulfonyl(4-Cl,3-CF3)-γGlu}-G[Ala(4-thiazolyl)][Tle][β3hP]-NH2): the values for the IC50 (at Matrilysin; in test [1]) were 3.8 nM and 0.93 µM, respectively.
Regarding `CC(C)(C)[C@H](NC(=O)[C@H](Cc1nccs1)NC(=O)CNC(=O)CC[C@H](NS(=O)(=O)c1ccc(Cl)c(C(F)(F)F)c1)C(=O)O)C(=O)N1CCC[C@H]1CC(N)=O` ({Benzenesulfonyl(4-Cl,3-CF3)-γGlu}-G[Ala(thiazol-2-yl)][Tle][β3hP]-NH2), the IC50 on Matrilysin came out at 9.6 nM; in test [1] it was 3.8 µM.
On to `CC(C)(C)[C@H](NC(=O)[C@H](Cc1ccccc1I)NC(=O)CNC(=O)CC[C@H](NS(=O)(=O)c1ccc(Cl)c(C(F)(F)F)c1)C(=O)O)C(=O)N1CCC[C@H]1CC(N)=O` ({Benzenesulfonyl(4-Cl,3-CF3)-γGlu}-G[Phe(2-I)][Tle][β3hP]-NH2), for which the IC50 at Matrilysin was determined as 8.8 nM; in test [1], 3.4 µM.
Taken in the same sequence, the figures for `CC(C)(C)[C@H](NC(=O)[C@H](Cc1cccc(I)c1)NC(=O)CNC(=O)CC[C@H](NS(=O)(=O)c1ccc(Cl)c(C(F)(F)F)c1)C(=O)O)C(=O)N1CCC[C@H]1CC(N)=O` ({Benzenesulfonyl(4-Cl,3-CF3)-γGlu}-G[Phe(3-I)][Tle][β3hP]-NH2) were 12 nM and 3.1 µM.
Consider `CC(C)(C)[C@H](NC(=O)[C@H](Cc1ccc(C(F)(F)F)cc1)NC(=O)CNC(=O)CC[C@H](NS(=O)(=O)c1ccc(Cl)c(C(F)(F)F)c1)C(=O)O)C(=O)N1CCC[C@H]1CC(N)=O` ({Benzenesulfonyl(4-Cl,3-CF3)-γGlu}-G[Phe(4-CF3)][Tle][β3hP]-NH2), for which the IC50 at Matrilysin worked out at 10 nM; in test [1], 1.7 µM.
In the case of `CC(C)(C)[C@H](NC(=O)[C@H](Cc1ccc(I)cc1)NC(=O)CNC(=O)CC[C@H](NS(=O)(=O)c1ccc(Cl)c(C(F)(F)F)c1)C(=O)O)C(=O)N1CCC[C@H]1CC(N)=O` ({Benzenesulfonyl(4-Cl,3-CF3)-γGlu}-G[Phe(4-I)][Tle][β3hP]-NH2), the IC50 at Matrilysin is 8.4 nM; in test [1] it was 0.69 µM.
For `CC(C)(C)[C@H](NC(=O)[C@@H](NC(=O)CNC(=O)CC[C@H](NS(=O)(=O)c1ccc(Cl)c(C(F)(F)F)c1)C(=O)O)c1ccccc1)C(=O)N1CCC[C@H]1CC(N)=O` ({Benzenesulfonyl(4-Cl,3-CF3)-γGlu}-G[Phg][Tle][β3hP]-NH2) the same measures were 380 nM and 5.1 µM.
In the case of `CC(C)(C)[C@H](NC(=O)[C@H](CCc1ccccc1)NC(=O)CNC(=O)CC[C@H](NS(=O)(=O)c1ccc(Cl)c(C(F)(F)F)c1)C(=O)O)C(=O)N1CCC[C@H]1CC(N)=O` ({Benzenesulfonyl(4-Cl,3-CF3)-γGlu}-G[hPhe][Tle][β3hP]-NH2), the results for the concentration for half-maximal inhibition (IC50) (at Matrilysin; in test [1]) were 80 nM and 4.5 µM, respectively.

The values are drawn from ChEMBL document CHEMBL5370641, “Structure-Based Optimization and Biological Evaluation of Potent and Selective MMP-7 Inhibitors for Kidney Fibrosis” (J Med Chem, 2023).
